Assay results taken from patent US10273218B2, “BCL-3 inhibitors” (University College Cardiff Consultants Limited, priority 2014, dated 2019).

How the values were obtained:
[1] = tested on: MDA-MB-231-Luc highly metastatic human breast cancer cells; assay: in vivo metastasis mouse model, disease free survival; parameters: species or system Nude mice; settings: 3.5 mg/Kg once daily for 10 days; MDA-MB-231-Luc i.v.; monitored up to 49 days
Experimental: Nude mice are injected i.v. with 200,000 highly metastatic human breast cancer cells expressing luciferase (MDA-MB-231-Luc) then are given a compound of Formula (I) or Formula (Ia) once daily for about 10 days and are monitored for tumours by total body scan using Xenogen-IVIS. Mice with a luciferase signal above background in repeated scans in any part of their torso are scored as having metastatic disease. Total light emission in the abdominal region is quantified at time points up to 49 days post surgery and plotted as mean total light yield.
Nude mice were injected i.v. with 200,000 highly metastatic human breast cancer cells expressing luciferase (MDA-MB-231-Luc) then given 3.5 mg/Kg of compound 12, reference compound A, or Reference compound B once daily for 10 days and monitored for tumours by total body scan using Xenogen-IVIS. Mice with a luciferase signal above background in repeated scans in any part of their torso were scored as having metastatic disease. Total light emission in abdominal region was quantified at time points up to 49 days post surgery and plotted as mean total light yield. Control n=12, Reference compound A n=10, Reference compound B n=4; compound 12 n=4.

[2] = tested on: human breast cancer cell line MDA-MB-436; assay: transwell (Boyden chamber) cell migration assay after scratch; format: cell-based; settings: 10 micromolar compound, 24 hours before and 24 hours in transwell chambers, versus DMSO, compound 12, MEKi
Experimental: The migration of cells in the presence of a compound of Formula (I) or Formula (Ia) is determined using a Scratch assay.
For the Scratch Assay, 1 micromolar solutions of the compounds are prepared. In six well plates, the complete growth media of the seeded cells (density […] in 20 mL) is removed and replaced by 3 mL of a fresh one containing compounds of Formula (I) or Formula (Ia). Media is used as a negative compound.
After a 24 h incubation period at 5% CO2 and 37° C., the media is removed and a scratch is performed in each well. 1 mL of fresh complete growth media is used to wash the well. After its removal, 3 mL of a solution containing a compound of Formula (I) or Formula (Ia) is added in each well in triplicate. Pictures of the wells are then taken. After 24 h, pictures of the wells are again taken. […]
The cell migration assay used was the transwell (Boyden chamber) assay of cell migration in human breast cancer cell line MDA-MB-436. After a scratch was performed in each well the cells were incubated with a 10 micromolar solution of compound for 24 hours prior to passage into transwell chambers where they were maintained in the presence of compound for a further 24 hours before assessment of migration (measured by total fluorescence on opposing surface of transwell membrane following staining). Reduced fluorescence directly correlates with number of cells migrated. […]

[3] = tested on: human breast cancer MDA-MB-231 xenograft; assay: in vivo metastasis mouse Model 1 (seeding and early colonization of circulating tumour cells); parameters: species or system mice; settings: 3.5 mg/Kg intraperitoneal daily for 10 days, relative luminescence of thoracic region
Experimental: In all experiments, each compound was administered by intraperitoneally at 3.5 mg/kg.
One model (Model 1) studied the effect of the compound's ability to inhibit the seeding and early colonization of circulating tumour cells at distal sites, most commonly in the lungs and liver. Human tumour cell lines were injected into the bloodstream of recipient mice, followed by single daily intraperitoneal injections of the compound (3.5 mg/kg in 1% DMSO) for 10 consecutive days. Tumour burden was monitored longitudinally for up to 8 weeks in vivo by live luminescence imaging, and subsequently histology performed on affected organs at the end of the experiment.
Model 1 tested the effect of Bcl3i compounds to inhibit the seeding and early colonization of circulating tumour cells at distal sites, most commonly in the lungs and liver. Human tumour cell lines were injected into the bloodstream of recipient mice, followed by single daily intraperitoneal injections of Bcl3 inhibitor (3.5 mg/kg in 1% DMSO) for 10 consecutive days. Tumour burden was monitored longitudinally for up to 8 weeks in vivo by live luminescence imaging, and subsequently histology performed on affected organs at the end of the experiment.
The X axis represents the number of days after xenograft and the Y axis is the relative luminescence of the thoracic region by Xenon IVIS scanning of mice following injection of d-luciferin for 10 minutes.
MDA-MB-231 human breast cancer cells were used in each of the three xenograft models of metastatic breast cancer.

Structure (SMILES) | disease free survival [1] [%] | reduction of cell migration (total fluorescence on opposing surface of transwell membrane) [2] | potency of effect in Model 1 relative to compound 28 [3] | inhibition of metastasis / tumour burden in Model 1 ([3]; versus controls and compound 12)
COc1ccc(C(=O)Nc2ccccc2C(=O)NCCN2CCOCC2)cc1 [Reference compound B] | 50 | – | – | –
O=C(Nc1ccccc1C(=O)NCCN1CCOCC1)c1ccc2ccccc2c1 [Compound 31] | – | more effective at reducing cell migration than the known potent cell migration inhibitor MEKi | more potent effects than compound 28 | equivalent inhibition of metastasis in vivo to compound 12
O=C(Nc1ccccc1C(=O)NCCN1CCOCC1)c1ccccc1F [Reference compound A] | 70 | – | – | –
